biological target: T1, human FOXO1 (constitutively active form Thr24Ala, Ser256Ala, Ser319Ala) (Homo sapiens, UniProt Q12778, S256A/S319A/T24A); experiment: FOXO1 inhibitor activity assay: cell-based transcriptional (luciferase) reporter assay in HEK293 cells; settings: HEK293 cells transfected with insulin response element firefly luciferase reporter, FOXO1 and Renilla luciferase; 10-point dose response 50 μM to 2.5 nM; 24 hours
T1 construct: expressed in transfected cells; host or cells: HEK293 cells transfected with pcDNA3.1 plasmid
T1 sequence (Q12778 whole entry T24A/S256A/S319A): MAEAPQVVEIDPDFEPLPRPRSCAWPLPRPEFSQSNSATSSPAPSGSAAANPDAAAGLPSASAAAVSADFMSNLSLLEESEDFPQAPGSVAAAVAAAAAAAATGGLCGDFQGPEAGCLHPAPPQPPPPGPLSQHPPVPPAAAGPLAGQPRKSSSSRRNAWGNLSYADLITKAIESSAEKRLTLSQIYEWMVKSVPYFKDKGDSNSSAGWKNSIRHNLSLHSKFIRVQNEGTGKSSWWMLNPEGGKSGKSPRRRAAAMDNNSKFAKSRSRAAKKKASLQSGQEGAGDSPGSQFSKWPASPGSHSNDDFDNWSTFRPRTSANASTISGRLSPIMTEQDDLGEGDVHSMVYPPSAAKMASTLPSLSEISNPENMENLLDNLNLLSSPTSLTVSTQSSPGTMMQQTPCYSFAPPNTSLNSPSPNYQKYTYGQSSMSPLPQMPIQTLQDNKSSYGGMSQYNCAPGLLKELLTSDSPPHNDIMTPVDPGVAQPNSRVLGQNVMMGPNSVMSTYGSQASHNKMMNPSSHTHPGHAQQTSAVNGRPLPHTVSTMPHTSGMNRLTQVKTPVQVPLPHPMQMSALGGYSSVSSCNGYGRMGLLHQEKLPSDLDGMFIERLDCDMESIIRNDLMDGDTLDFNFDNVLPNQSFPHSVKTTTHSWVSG
In short: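 IC50 and maximal inhibition were fitted by 4-parameter logistic regression on normalized firefly/Renilla luciferase ratios. The 0% reference used RFP in place of FOXO1, and the 100% reference was DMSO-only with all plasmids.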

| SMILES | IC50 [nM] |
| --- | --- |
| CN(C)C1CCN(c2ccc(C(=O)Nc3cc(-c4nc5cccc(F)c5[nH]4)n(C)n3)cn2)CC1 [Compound A-139, 6-[4-(dimethylamino)-1-piperidyl]-N-[5-(4-fluoro-1H-benzimidazol-2-yl)-1-methyl-pyrazol-3-yl]pyridine-3-carboxamide] | 100 to 300 |
| Cn1nc(NC(=O)c2ccc(N3CCO[C@@H](CO)C3)nc2)cc1-c1nc2ccccc2[nH]1 [Compound A-248, N-[5-(1H-benzimidazol-2-yl)-1-methyl-pyrazol-3-yl]-6-[(2R)-2-(hydroxymethyl)morpholin-4-yl]pyridine-3-carboxamide] | < 100 |
| O=C(Nc1cc(-c2nc3ccccc3[nH]2)[nH]n1)c1ccc(N2CC(O)C2)nc1 [Compound A-64, N-[5-(1H-benzimidazol-2-yl)-1H-pyrazol-3-yl]-6-(3-hydroxyazetidin-1-yl)pyridine-3-carboxamide] | > 1000 |
| Cn1nc(NC(=O)c2ccc(N3CCNC(C)(C)C3)nc2)cc1-c1nc2ccccc2[nH]1 [Compound A-280, N-[5-(1H-benzimidazol-2-yl)-1-methyl-pyrazol-3-yl]-6-(3,3-dimethyl-piperazin-1-yl)pyridine-3-carboxamide] | < 100 |
| Cn1nc(NC(=O)c2ccc(N3CCN(C4COC4)CC3)nc2)cc1-c1nc2cc(F)ccc2[nH]1 [Compound A-160] | 300 to 1000 |
| O=C(Nc1cc(-c2nc3ccccc3[nH]2)[nH]n1)c1ccc(N2CCC[C@H]2C(=O)O)nc1 [Compound A-48, (2S)-1-[5-[[5-(1H-benzimidazol-2-yl)-1H-pyrazol-3-yl]carbamoyl]-2-pyridyl]pyrrolidine-2-carboxylic acid] | > 1000 |
| COC1CN(c2ccc(C(=O)Nc3cc(-c4nc5ccccc5[nH]4)[nH]n3)cn2)C1 [Compound A-65, N-[5-(1H-benzimidazol-2-yl)-1H-pyrazol-3-yl]-6-(3-methoxyazetidin-1-yl)pyridine-3-carboxamide] | < 100 |
| CCOCCNc1ccc(C(=O)Nc2cc(-c3nc4ccccc4[nH]3)[nH]n2)cn1 [Compound A-61, N-[5-(1H-benzimidazol-2-yl)-1H-pyrazol-3-yl]-6-(2-ethoxyethylamino)-pyridine-3-carboxamide] | 100 to 300 |
| O=C(Nc1cc(-c2nc3ccccc3[nH]2)[nH]n1)c1ccc(N2CCC(C(=O)O)CC2)nc1 [Compound A-51, ammonium 1-[5-[[5-(1H-benzimidazol-2-yl)-1H-pyrazol-3-yl]carbamoyl]-2-pyridyl]piperidine-4-carboxylate] | > 1000 |
| O=C(Nc1cc(-c2nc3cc(OC(F)(F)F)ccc3[nH]2)[nH]n1)c1ccc(N2CCC(O)CC2)nc1 [Compound A-108, 6-(4-hydroxy-1-piperidyl)-N-[5-[5-(trifluoromethoxy)-1H-benzimidazol-2-yl]-1H-pyrazol-3-yl]pyridine-3-carboxamide] | > 1000 |
| O=C(Nc1cc(-c2nc3cc(F)ccc3[nH]2)[nH]n1)c1ccc(OCCO)c(Cl)c1 [Compound A-141, 3-chloro-N-[5-(5-fluoro-1H-benzimidazol-2-yl)-1H-pyrazol-3-yl]-4-(2-hydroxyethoxy)benzamide] | 100 to 300 |
| COc1ccc(C(=O)Nc2nc(-c3nc4ccccc4[nH]3)n(C)n2)cc1Cl [Compound A-234, N-[5-(1H-benzimidazol-2-yl)-1-methyl-1,2,4-triazol-3-yl]-3-chloro-4-methoxy-benzamide] | 300 to 1000 |
| COCCSc1ccc(C(=O)Nc2cc(-c3nc4ccccc4[nH]3)[nH]n2)cc1Cl [Compound A-93, N-[5-(1H-benzimidazol-2-yl)-1H-pyrazol-3-yl]-3-chloro-4-(2-methoxyethylsulfanyl)benzamide] | < 100 |
| Cn1nc(NC(=O)c2ccc(N3CCC(N4CCOCC4)CC3)nc2)cc1-c1nc2cccc(F)c2[nH]1 [Compound A-173] | 100 to 300 |
| Cn1nc(NC(=O)c2ccc(N3CCN(C(=O)CN)CC3)nc2)cc1-c1nc2ccccc2[nH]1 [Compound A-289, 6-[4-(2-aminoacetyl)piperazin-1-yl]-N-[5-(1H-benzimidazol-2-yl)-1-methyl-pyrazol-3-yl]pyridine-3-carboxamide] | 100 to 300 |
| Cn1nc(NC(=O)c2cnc(N3CCC(N4CCOCC4)CC3)nc2)cc1-c1nc2ccccc2[nH]1 [Compound A-206, N-[5-(1H-benzimidazol-2-yl)-1-methyl-pyrazol-3-yl]-2-(4-morpholino-1-piperidyl)pyrimidine-5-carboxamide] | > 1000 |
| COc1ccc(C(=O)Nc2cc(-c3nc4cc(N5CCN(C)CC5)ccc4[nH]3)[nH]n2)cc1Cl [Compound A-261, 3-chloro-4-methoxy-N-[5-[5-(4-methylpiperazin-1-yl)-1H-benzimidazol-2-yl]-1H-pyrazol-3-yl]benzamide] | < 100 |
| Cn1nc(NC(=O)c2ccc(N3CCC4(CCCO4)CC3)nc2)cc1-c1nc2ccccc2[nH]1 [Compound A-273, N-[5-(1H-benzimidazol-2-yl)-1-methyl-pyrazol-3-yl]-6-(1-oxa-8-azaspiro[4.5]decan-8-yl)pyridine-3-carboxamide] | 100 to 300 |

| SMILES | IC50 [nM] |
| --- | --- |
| COCCOc1ccc(C(=O)Nc2cc(-c3nc4cccc(F)c4[nH]3)n(C)n2)cc1Cl [Compound A-164, 3-chloro-N-[5-(7-fluoro-1H-benzimidazol-2-yl)-1-methyl-pyrazol-3-yl]-4-(2-methoxyethoxy)benzamide] | < 100 |
| COCC(=O)N1CCN(c2ccc(C(=O)Nc3cc(-c4nc5ccccc5[nH]4)n(C)n3)cn2)CC1 [Compound A-271] | 100 to 300 |
| COCCN1CCN(c2ccc(C(=O)Nc3cc(-c4nc5cc(OC)cc(F)c5[nH]4)[nH]n3)cn2)CC1 [Compound A-192, N-[5-(7-fluoro-5-methoxy-1H-benzimidazol-2-yl)-1H-pyrazol-3-yl]-6-[4-(2-methoxyethyl)piperazin-1-yl]pyridine-3-carboxamide] | > 1000 |
| CCOC(=O)[C@@H]1CCCN1c1ccc(C(=O)Nc2cc(-c3nc4cc(F)ccc4[nH]3)n(C)n2)cn1 [Compound A-145, ethyl (25)-1-[5-[[5-(5-fluoro-1H-benzimidazol-2-yl)-1-methyl-pyrazol-3-yl]carbamoyl]-2-pyridyl]pyrrolidine-2-carboxylate] | > 1000 |
| CC1CN(c2ccc(C(=O)Nc3cc(-c4nc5ccccc5[nH]4)n(C)n3)cn2)CC(CO)O1 (single isomer, unassigned) [Compound A-294, N-[5-(1H-benzimidazol-2-yl)-1-methyl-pyrazol-3-yl]-6-[2-(hydroxymethyl)-6-methyl-morpholin-4-yl]pyridine-3-carboxamide] | < 100 |
| Cn1nc(NC(=O)c2ccc(N3CCN(CCOC4CC4)CC3)nc2)cc1-c1nc2ccccc2[nH]1 [Compound A-266, N-[5-(1H-benzimidazol-2-yl)-1-methyl-pyrazol-3-yl]-6-[4-[2-(cyclo-propoxy)ethyl]piperazin-1-yl]pyridine-3-carboxamide] | < 100 |
| COc1ccc2[nH]c(-c3cc(NC(=O)c4ccc(OCCO)c(Cl)c4)n[nH]3)nc2c1 [Compound A-117, 3-chloro-4-(2-hydroxyethoxy)-N-[5-(5-methoxy-1H-benzimidazol-2-yl)-1H-pyrazol-3-yl]benzamide formic acid] | < 100 |
| CC(=O)N1CCN(c2ccc(C(=O)Nc3cc(-c4nc5ccccc5[nH]4)n(C)n3)cn2)CC1 [Compound A-226, 6-(4-acetylpiperazin-1-yl)-N-[5-(1H-benzimidazol-2-yl)-1-methyl-pyrazol-3-yl]pyridine-3-carboxamide] | 100 to 300 |
| O=C(Nc1cc(-c2nc3ccccc3[nH]2)[nH]n1)c1ccc(NCCO)c(Cl)c1 [Compound A-78, N-[5-(1H-benzimidazol-2-yl)-1H-pyrazol-3-yl]-3-chloro-4-(2-hydroxy-ethylamino)benzamide] | 100 to 300 |
| Cn1nc(NC(=O)c2ccc(N3CCN(CCO)CC3)cc2)cc1-c1nc2ccccc2[nH]1 [Compound A-213, N-[5-(1H-benzimidazol-2-yl)-1-methyl-pyrazol-3-yl]-4-[4-(2-hydroxy-ethyl)piperazin-1-yl]benzamide] | 100 to 300 |
| O=C(Nc1cc(-c2nc3ccccc3[nH]2)[nH]n1)c1ccc(OCCO)c(C(F)(F)F)c1 [Compound A-152, N-[5-(1H-benzimidazol-2-yl)-1H-pyrazol-3-yl]-4-(2-hydroxyethoxy)-3-(trifluoromethyl)benzamide] | < 100 |
| O=C(Nc1cc(-c2nc3ccccc3[nH]2)[nH]n1)c1ccc(N2CC3(COC3)C2)nc1 [Compound A-45, N-[5-(1H-benzimidazol-2-yl)-1H-pyrazol-3-yl]-6-(2-oxa-6-azaspiro[3.3]heptan-6-yl)pyridine-3-carboxamide] | > 1000 |
| CC(O)CN1CCN(c2ccc(C(=O)Nc3cc(-c4nc5ccccc5[nH]4)n(C)n3)cc2)CC1 (centres unmarked) [A-257, N-[5-(1H-benzimidazol-2-yl)-1-methyl-pyrazol-3-yl]-4-[4-(2-hydroxypropyl)piperazin-1-yl]benzamide] | < 100 |
| Cn1nc(NC(=O)c2ccc(N3CC(CO)C3)nc2)cc1-c1nc2ccccc2[nH]1 [Compound A-270, N-[5-(1H-benzimidazol-2-yl)-1-methyl-pyrazol-3-yl]-6-[3-(hydroxymethyl)azetidin-1-yl]pyridine-3-carboxamide] | 300 to 1000 |
| O=C(Nc1cc(-c2nc3cc(Br)ccc3[nH]2)[nH]n1)c1ccc(N2CCC(O)CC2)nc1 [Compound A-90, N-[5-(5-bromo-1H-benzimidazol-2-yl)-1H-pyrazol-3-yl]-6-(4-hydroxy-1-piperidyl)pyridine-3-carboxamide] | > 1000 |
| O=C(Nc1cc(-c2nc3cc(F)ccc3[nH]2)[nH]n1)c1ccc(N2CCC(O)CC2)nc1 [Compound A-81, N-[5-(5-fluoro-1H-benzimidazol-2-yl)-1H-pyrazol-3-yl]-6-(4-hydroxy-1-piperidyl)pyridine-3-carboxamide] | 100 to 300 |
| COc1ccc(C(=O)Nc2cc(-c3nc4cc(F)ccc4[nH]3)n(C)n2)cc1Cl [Compound A-126, 3-chloro-N-[5-(5-fluoro-1H-benzimidazol-2-yl)-1-methyl-pyrazol-3-yl]-4-methoxy-benzamide] | < 100 |

Reference: patent US20230416228A1 (Forkhead Biotherapeutics, Inc., priority 2020, published 2023)
